Results reported in patent US8318664B2, “Unacylated ghrelin fragments as therapeutic agent in the treatment of obesity” (Alize Pharma SAS, priority 2007, dated 2012).
“Also recorded” adds a separate entry of the source. Non-standard residues stand in square brackets, D forms with d. No end group written: not given here.

Tests used:
hamster HIT-T15 β-cells = test: MTT cell survival assay in HIT-T15 β-cells; format: cell-based
Protocol: MTT experiments were also performed in hamster HIT-T15 β-cells, to test the survival effect of UAG (1-28) or its fragments UAG (1-14), UAG (1-18), UAG (1-5) and UAG (17-28) in serum deprived medium, either alone or with IFN-γ/TNF-α/IL-1β. As for the experiments performed on INS-1E β-cells, the peptides were tested at increasing concentrations, ranging from 0.1 nM to 100 nM.
The survival effect of UAG (6-13), UAG (8-13), UAG (8-12), UAG (8-11), UAG (9-12) and UAG (9-11) was assessed in cytokine-treated HIT-T15 β-cells.
The protective effects of peptides UAG (8-13) and UAG (8-12) were found similar to those of UAG (1-14) and UAG (1-18). A peptide made of the inverse sequence of UAG (1-14) and named UAG (14-1), was used as negative control for these experiments (FIG. 5A). […] These effects were however lower than those of UAG (6-13) (FIG. 5B).
UAG fragments with alanine (Ala) substitutions at different amino acid positions (6 to 13) were tested with regards to their survival effects in HIT-T15 hamster β-cells. The cells were cultured in serum deprived medium, either alone or with IFN-γ/TNF-α/IL-1β. The peptides were tested at the concentrations of 1 nM to 100 nM. […] Under treatment with cytokines, where cell survival was reduced by ≈18% with respect to serum starved conditions, all Ala substitutions, except those at positions 10 and 11, completely reversed cell death and brought the survival rate to levels that were even higher than those under serum-free conditions, at both 1 nM and 100 nM concentrations. These effects were similar to those elicited by the original peptide UAG (6-13) (FIG. 11B).
Particularly, the best effect was exerted by Gly 6-UAG (6-13), whereas the lowest was seen using AcSer 6-UAG (6-13), AcSer 6-(D)Pro 7-UAG (6-13) (FIG. 12B).
(§1) Hamster HIT-T15 insulin-secreting β-cells were obtained and cultured as described (Refs. 14, 4). INS-1E rat β-cells were kindly provided by Prof. Claes B. Wollheim (University Medical Center, Geneva, Switzerland) and cultured as described (Refs. 14, 4). Cell culture reagents were from Invitrogen (Milano, Italy). Cytokines were from Biosource (Invitrogen, Italy).
(§2) Cell survival was assessed by 3-[4,5-dimethylthiazol-2-yl]-2,5diphenyltetrazolium bromide (MTT) as described previously (Ref. 4). Cells were seeded on 96-well plates at a density of 5×10^3 cells/well. After treatments, cells were incubated with 1 mg/ml MTT for ≈1 h. The medium was aspirated, and the formazan product solubilized with 100 μl DMSO. Viability was assessed by spectrophotometry at 570 nm absorbance using a 96-well plate reader.

[1] = system: C57BL/6J male mice on high fat diet; test: High fat diet (HFD) pre-diabetic/onset obesity model in C57BL/6J mice; format: in vivo, mouse
Protocol: In order to assess the effects of UAG and cyclic UAG (6-13) on the metabolic responses to a high fat diet, ten (10) week old C57BL/6J male mice were allowed to acclimatize in the animal facility for 1 week. The mice were fed a standard chow (also referred herein as “normal diet” or “ND”, 9% kcal fat) and were maintained in 12 hour:12 hour light:dark conditions at 21° C. (FIG. 17).
At 11 weeks, the mice were separated into 2 different streams (n=10): the first stream consisted in 4 weeks of normal diet and the second stream consisted in 2 weeks of normal diet followed by 2 weeks of high fat diet (also referred herein as “HFD”, 41% kcal fat) with Intraperitoneal Glucose Tolerance Testing (IPGTT) (also referred herein as “IPGTT”) and Intraperitoneal Insuline Tolerance Testing (also referred herein as “IPITT”). Baseline 24 h food intake and IPGTTs were run before pump implantation (FIG. 17).
Alzet 1004 micro-osmotic pumps containing saline, UAG or cyclic UAG (6-13) were implanted at week 0 of the procedure depicted in FIG. 17 in the mice of the two streams (sc., interscapular) under isoflurane anesthesia and peri-operative carprofen analgesia (5 mg/kg sc.). UAG or cyclic UAG (6-13) peptides were infused at 4 nmol/kg/hr.
Body weight and 24 h food intake were measured weekly for 4 weeks and IPGTTs were performed bi-weekly for 4 weeks. […] The suppression in body weight gain observed in peptide-treated mice can therefore not be explained by a reduced food intake.
GTTs were performed following a 6 h fast starting at 8 am, then ˜100 μl of blood was collected from the tail vein (t=0) for measurement of insulin under fasting conditions (no anesthesia). Mice were injected ip. with 2 g/kg glucose in saline solution. Glucose was then measured using a glucometer using ˜0.5 μl of tail vein blood at t=0, 15, 30, 45, 60 and 120 minutes. During the GTT at wk 4 samples of ˜25 μl of tail vein blood were also collected at 15, 30 and 120 minutes for insulin determination.
The day after the final IPGTT, mice were fasted for 4 h starting at 8 am, then injected with human insulin (Actrapid, Novo Nordisk) at 0.5 IU/kg. Glucose in tail vein blood (˜0.5 μl) was measured with a glucometer at t=0, 15, 30, 45, 60 and 120 minutes (no anesthesia).
Tail vein blood glucose was measured by glucometer biweekly from free-fed mice in the non-IPGTT experimental streams (no anesthesia).

HIT-T15 β-cells = test: Cytokine-induced apoptosis in HIT-T15 β-cells; format: cell-based, hamster; details: 24 h serum-free medium with IFN-γ/TNF-α/IL-1β, 1, 10, 100 nM
Protocol: HIT-T15 β-cells were cultured for 24 h in serum-free medium, either alone or with IFN-γ/TNF-α/IL-1β. In both cell lines, apoptosis increased under cytokine treatment, with respect to serum starvation alone. […] UAG (14-1), the inverse sequence of UAG (1-14), was used as negative control, whereas UAG (1-28), was used as positive control in each experiment.

[2] = system: UAG receptor on HIT-T15 pancreatic β-cells; test: Competition with [125I-Tyr4]-UAG for binding sites on HIT-T15 membranes; design: species or system hamster
Protocol: (§3) The ability of the fragment UAG (6-13) to compete in a concentration-dependent manner with [^125I-Tyr^4]-UAG for HIT-T15 (FIG. 10A) and INS-1E (FIG. 10B) binding sites was assayed. As shown in FIGS. 10A and 10B, unlabelled UAG (1-28) and UAG (6-13) competed with a similar efficacy and in a concentration-dependent fashion with [^125I-Tyr^4]-UAG for such binding sites in both cell lines.
(§4) Membranes from hamster HIT-T15 and rat INS-1E pancreatic β-cells were prepared and assayed for the presence of [^125I-Tyr^4]-UAG binding. The ability of UAG fragments to compete with the radioligand for such binding sites has been evaluated as previously described (Ref. 4). Data are presented as mean±S.E.M. of three independent experiments.

[3] = system: UAG receptor on INS-1E pancreatic β-cells; test: Competition with [125I-Tyr4]-UAG for binding sites on INS-1E membranes; design: species or system rat
Protocol: as §3, §4

human pancreatic islets = test: MTT cell survival assay in human pancreatic islets; format: cell-based; details: human islet cells, 1 nM to 100 nM
Protocol: The survival effect of UAG (1-14), UAG (1-18), UAG (1-5) and UAG (17-28), with respect to that of full length UAG (1-28), was assessed in human pancreatic islets by MTT. The peptides were tested in islet cells cultured in serum deprived medium, either alone or with IFN-γ/TNF-α/IL-1β (5 ng/ml each).
Human islets were obtained from pancreases of multiorgan donors as described (Ref. 4). Islet preparations with purity >70%, not suitable for transplantation, were provided by European Consortium for Islet Transplantation (ECIT) “Islets for Research Distribution Program,” Transplant Unit, Scientific Institute San Raffaele, Vita-Salute University, Milan. Islets (10,000) were cultured in CMRL (Invitrogen) with 10% FBS.
as §2

INS-1E rat β-cells = test: MTT cell survival assay in INS-1E β-cells; format: cell-based; details: 0.1 nM to 100 nM
Protocol: The peptides were tested at increasing concentrations, ranging from 0.1 nM to 100 nM.
as §1, §2

[4] = serum deprived medium with IFN-γ/TNF-α/IL-1β
[5] = serum deprived medium with IFN-γ/TNF-α/IL-1β (5 ng/ml each)

“Ac-Ser-pro-Glu-His-Gln-Arg-Val-Gln-NH2 (Ac-S[dP]EHQRVQ-NH2; listed as Homo sapiens) [AcSer 6-(D)Pro 7-UAG (6-13)]” was tested, and the “cell survival (MTT)” value (hamster HIT-T15 β-cells; [4]) was “lowest”.

In the case of “Ser-Pro-Glu-His-Gln-Arg-Val-Gln (cyclic) (SPEHQRVQ; cyclic; (1)..(8) Cyclic; listed as Homo sapiens) [cyclic UAG (6-13)]”, the body weight gain ([1]; HFD, 4 nmol/kg/hr sc. infusion, compared to saline-HFD) is reported as “suppressed body weight gain”, the “glucose levels in fasting or fed state” value ([1]; HFD, pre-diabetic, normoglycemic conditions) is reported as “does not significantly affect glucose levels” and the “HFD-induced insulin resistance (insulin tolerance test, area above the glucose curve)” value ([1]; IPITT, HFD) is reported as “restores insulin resistance to a level that is comparable to ND control”. The “HFD-induced glucose intolerance (IPGTT)” value ([1]; after 2 weeks on the HFD) was “prevents glucose intolerance”, the “reduction of eWAT normalized for body weight” value ([1]; at 4 weeks, HFD) was “about 28%” and the “weight of epididymal white adipose tissue (eWAT)” value ([1]; at 4 weeks, HFD) was “lower than that of the control mice fed on the HFD”.

In the case of “Ac-Ser-Pro-Glu-His-Gln-Arg-Val-Gln-NH2 (Ac-SPEHQRVQ-NH2; listed as Homo sapiens) [AcSer 6-UAG (6-13)]”, the “cell survival (MTT)” value (hamster HIT-T15 β-cells; [4]) is reported as “lowest”.

With His-Gln-Arg [UAG (9-11)] the “cell survival (MTT)” value (hamster HIT-T15 β-cells; [4]) was “no significant effect at both concentrations tested”.

For EHQRVQ [UAG (8-13)], the “antiapoptotic effect (cytokine-induced apoptosis)” value (HIT-T15 β-cells) was “significantly inhibited apoptosis at 10 and 100 nM; also recorded: strongest antiapoptotic effect” and the “cell survival (MTT)” value (hamster HIT-T15 β-cells; [4]) was “significant protective effect at all the concentrations examined; also recorded: strongly effective in increasing survival”.

With “UAG (1-13): fragment named only in b101 as binding to the UAG receptor; possibly a misprint (GSSFLSPEHQRVQ)” the “binding to the UAG receptor” value [2] was “recognized and bound” and the “binding to the UAG receptor” value [3] was “recognized and bound”.

With “Gly-Ser-Ser-Phe-Leu (GSSFL; listed as Homo sapiens) [UAG (1-5)]” the “cell survival (MTT)” value (human pancreatic islets; serum deprived medium alone) was “little, although significant survival action at 10 nM”, the “cell survival (MTT)” value (human pancreatic islets; [5]) was “no cell protection” and the “cell survival (MTT)” value (INS-1E rat β-cells; serum deprived medium alone) was “reduced, although significant, survival action; also recorded: only a trivial effect”. The “cell survival (MTT)” value (INS-1E rat β-cells; [4]) was “reduced effect; also recorded: only a trivial effect”, the “cell survival (MTT)” value (hamster HIT-T15 β-cells; serum deprived medium alone) was “very little effect” and the “cell survival (MTT)” value (hamster HIT-T15 β-cells; [4]) was “slightly increased cell survival; also recorded: very little effect”.

“His-Gln-Arg-Val (HQRV; listed as Homo sapiens) [UAG (9-12)]” was tested, and the “cell survival (MTT)” value (hamster HIT-T15 β-cells; [4]) was “significantly increased cell survival at both the concentrations tested”.

With “Glu-His-Gln-Arg-Val (EHQRV; listed as Homo Sapiens) [UAG (8-12)]” the “antiapoptotic effect (cytokine-induced apoptosis)” value (HIT-T15 β-cells) was “some protective effect only at 100 nM; also recorded: strongest antiapoptotic effect” and the “cell survival (MTT)” value (hamster HIT-T15 β-cells; [4]) was “strongly effective in increasing survival”.

ESKKPPAKLQPR [UAG (17-28)] was tested, and the “cell survival (MTT)” value (human pancreatic islets; serum deprived medium alone) was “significantly increased survival of islet cells”, the “cell survival (MTT)” value (human pancreatic islets; [5]) was “had no effect” and the “cell survival (MTT)” value (INS-1E rat β-cells; serum deprived medium alone) was “reduced, although significant, survival action; also recorded: only a trivial effect”. The “cell survival (MTT)” value (INS-1E rat β-cells; [4]) was “reduced effect; also recorded: only a trivial effect”, the “cell survival (MTT)” value (hamster HIT-T15 β-cells; serum deprived medium alone) was “no significant effect; also recorded: very little effect” and the “cell survival (MTT)” value (hamster HIT-T15 β-cells; [4]) was “no significant effect; also recorded: very little effect”.

With “Glu-His-Gln-Arg (EHQR; listed as Homo sapiens) [UAG (8-11)]” the “cell survival (MTT)” value (hamster HIT-T15 β-cells; [4]) was “significant survival effect only at 100 nM”.

With “Gly-Pro-Glu-His-Gln-Arg-Val-Gln-NH2 (GPEHQRVQ-NH2; listed as Homo sapiens) [Gly 6-UAG (6-13)]” the “cell survival (MTT)” value (hamster HIT-T15 β-cells; [4]) was “best effect”.
